We go through two compounds from patent US7074802B2, “Pyrimidine derivatives as selective inhibitors of cox-2” (Glaxo Group Limited, priority 2001, dated 2006).

The IC50 is the concentration that inhibits the measured activity by half. The low end stands for inhibition by little substance, the high end for a need for much substance.

One experiment has as its target COX-1 (Homo sapiens, UniProt P23219). In words: Microsomal assay, inhibition of COX-1. Type of experiment: biochemical. The method, then: (§1) Inhibitory activity against microsomal h-COX2 was assessed against a microsomal preparation from baculovirus infected SF9 cells. An aliquot of microsomal preparation was thawed slowly on ice and a 1/40,000 dilution prepared from it into the assay buffer (sterile water, degassed with argon containing 100 mM HEPES (pH 7.4), 10 mM EDTA (pH7.4), 1 mM phenol, 1 mM reduced glutathione, 20 mg/ml gelatin and 0.001 mM Hematin). Once diluted the enzyme solution was then sonicated for 5 seconds (Branson sonicator, setting 4, 1 cm tip) to ensure a homogeneous suspension. 155 μl enzyme solution was then added to each well of a 96-well microtitre plate containing either 5 μl test compound (40× required test concentration) or 5 μl DMSO for controls. Plates were then mixed and incubated at room temperature for 1 hour. Following the incubation period, 40 μl of 0.5 μM arachidonic acid was added to each well to give a final concentration of 0.1 μM. Plates were then mixed and incubated for exactly 10 minutes (room temperature) prior to addition of 25 μl 1M HCl (hydrochloric acid) to each well to stop the reaction. 25 μl of 1M NaOH (sodium hydroxide) was then added to each well to neutralise the solution prior to determination of PGE2 levels by enzyme immunoassay (EIA).
(§2) The following IC50 values for inhibition of COX-2 and COX-1 were obtained from the microsomal assay for compounds of the invention: […]

For a further experiment, the target named is T1, microsomal h-COX2 (Homo sapiens, UniProt P35354).
T1 construct: made in house; host or cells: baculovirus infected SF9 cells (microsomal preparation)
T1 sequence (P35354 18-604): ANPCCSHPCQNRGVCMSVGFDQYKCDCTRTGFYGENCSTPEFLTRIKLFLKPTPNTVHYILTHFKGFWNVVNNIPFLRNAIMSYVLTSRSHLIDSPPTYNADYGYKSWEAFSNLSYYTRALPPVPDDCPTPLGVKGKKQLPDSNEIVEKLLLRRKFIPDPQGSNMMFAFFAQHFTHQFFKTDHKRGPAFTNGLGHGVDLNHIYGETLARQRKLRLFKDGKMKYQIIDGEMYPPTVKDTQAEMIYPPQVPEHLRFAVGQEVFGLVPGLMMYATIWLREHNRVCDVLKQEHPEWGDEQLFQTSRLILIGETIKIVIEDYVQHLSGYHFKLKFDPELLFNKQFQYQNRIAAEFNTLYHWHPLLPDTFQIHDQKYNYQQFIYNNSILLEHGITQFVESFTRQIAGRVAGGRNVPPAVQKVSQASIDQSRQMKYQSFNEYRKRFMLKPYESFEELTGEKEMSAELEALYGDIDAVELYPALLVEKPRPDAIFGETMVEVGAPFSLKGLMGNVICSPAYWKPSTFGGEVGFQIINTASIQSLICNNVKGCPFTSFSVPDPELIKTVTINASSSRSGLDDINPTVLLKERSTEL
In words: Microsomal assay, inhibition of COX-2. The format is biochemical. Conditions: microsomal preparation from baculovirus infected SF9 cells; PGE2 by EIA. The procedure: as §1, §2

Chain of COX-1 (P23219 24-599): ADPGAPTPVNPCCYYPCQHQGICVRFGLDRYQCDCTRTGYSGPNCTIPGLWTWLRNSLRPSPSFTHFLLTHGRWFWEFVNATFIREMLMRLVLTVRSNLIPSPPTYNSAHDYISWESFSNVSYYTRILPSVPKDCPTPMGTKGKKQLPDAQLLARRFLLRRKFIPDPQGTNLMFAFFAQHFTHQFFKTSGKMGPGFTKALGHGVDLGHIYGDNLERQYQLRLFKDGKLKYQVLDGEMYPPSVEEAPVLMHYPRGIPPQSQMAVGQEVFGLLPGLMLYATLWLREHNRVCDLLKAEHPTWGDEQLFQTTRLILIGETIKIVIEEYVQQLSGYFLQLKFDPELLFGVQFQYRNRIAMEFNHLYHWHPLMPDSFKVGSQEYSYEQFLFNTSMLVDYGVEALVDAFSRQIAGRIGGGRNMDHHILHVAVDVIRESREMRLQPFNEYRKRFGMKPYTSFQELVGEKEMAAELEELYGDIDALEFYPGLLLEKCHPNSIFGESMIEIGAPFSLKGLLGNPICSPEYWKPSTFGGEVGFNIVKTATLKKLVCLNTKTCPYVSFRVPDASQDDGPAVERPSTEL

As for `CCCCNc1nc(CF)cc(-c2ccc(S(C)(=O)=O)cc2)n1` [Example 1, N-Butyl-4-(fluoromethyl)-6-[4-(methylsulfonyl)phenyl]pyrimidin-2-amine], the concentration for half-maximal inhibition (IC50) is greater than 10000 nM on COX-1 and 761 nM on microsomal h-COX2.

In the case of `CCCCNc1nc(-c2ccc(S(C)(=O)=O)cc2)cc(C(F)F)n1` [Example 2, N-butyl-4-(difluoromethyl)-6-[4-(methylsulfonyl)phenyl]pyrimidin-2-amine], the IC50 on COX-1 was greater than 94000 nM; at microsomal h-COX2, 17 nM.
